Assay results: the supplement of paper PMC10307832

Assays:
Experiment in all cases: relative viability (nuclei count vs DMSO), 5 days (fraction); higher = more cells survive
RU-SKI 43 + Alpelisib = compound: CC[C@@H](C)CNCC(=O)N1CCC2=C([C@@H]1COC3=CC=CC(=C3)C)C=CS2 [RU-SKI 43] + Cc1nc(NC(=O)N2CCC[C@H]2C(N)=O)sc1-c1ccnc(C(C)(C)C(F)(F)F)c1 [Alpelisib] (partner 2 µM)
Method in brief: (§1)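 Lung cancer cell lines were pin-tool dosed in 1536-well plates on the day after seeding, with either a lone drug or a fixed anchor-drug dose plus five library-drug doses (not always all listed) in √10 steps. Nuclei were counted on 4× images after 5 days. Relative viability is the ratio of treated-well to vehicle-well nuclei counts, with each value a median of duplicate plates.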

RU-SKI 43 + Linsitinib = compound: CC[C@@H](C)CNCC(=O)N1CCC2=C([C@@H]1COC3=CC=CC(=C3)C)C=CS2 [RU-SKI 43] + C[C@]1(O)C[C@@H](c2nc(-c3ccc4ccc(-c5ccccc5)nc4c3)c3c(N)nccn32)C1 [Linsitinib] (partner 1 µM)
Method in brief: as §1

RU-SKI 43 + Olaparib = compound: CC[C@@H](C)CNCC(=O)N1CCC2=C([C@@H]1COC3=CC=CC(=C3)C)C=CS2 [RU-SKI 43] + O=C(c1cc(Cc2n[nH]c(=O)c3ccccc23)ccc1F)N1CCN(C(=O)C2CC2)CC1 [Olaparib] (partner 8 µM)
Method in brief: as §1

RU-SKI 43 + Crizotinib = compound: CC[C@@H](C)CNCC(=O)N1CCC2=C([C@@H]1COC3=CC=CC(=C3)C)C=CS2 [RU-SKI 43] + C[C@@H](Oc1cc(-c2cnn(C3CCNCC3)c2)cnc1N)c1c(Cl)ccc(F)c1Cl [Crizotinib] (partner 1 µM)
Method in brief: as §1

Row | Cell Line | relative viability (RU-SKI 43 + Alpelisib; first compound 0.1 µM) | relative viability (RU-SKI 43 + Alpelisib; first compound 0.3162 µM) | relative viability (RU-SKI 43 + Alpelisib; first compound 1 µM) | relative viability (RU-SKI 43 + Alpelisib; first compound 3.162 µM) | relative viability (RU-SKI 43 + Alpelisib; first compound 10 µM) | relative viability (RU-SKI 43 + Linsitinib; first compound 0.1 µM) | relative viability (RU-SKI 43 + Linsitinib; first compound 0.3162 µM) | relative viability (RU-SKI 43 + Linsitinib; first compound 1 µM) | relative viability (RU-SKI 43 + Linsitinib; first compound 3.162 µM) | relative viability (RU-SKI 43 + Linsitinib; first compound 10 µM) | relative viability (RU-SKI 43 + Olaparib; first compound 0.1 µM) | relative viability (RU-SKI 43 + Olaparib; first compound 0.3162 µM) | relative viability (RU-SKI 43 + Olaparib; first compound 1 µM) | relative viability (RU-SKI 43 + Olaparib; first compound 3.162 µM) | relative viability (RU-SKI 43 + Olaparib; first compound 10 µM) | relative viability (RU-SKI 43 + Crizotinib; first compound 0.1 µM) | relative viability (RU-SKI 43 + Crizotinib; first compound 0.3162 µM) | relative viability (RU-SKI 43 + Crizotinib; first compound 1 µM) | relative viability (RU-SKI 43 + Crizotinib; first compound 3.162 µM) | relative viability (RU-SKI 43 + Crizotinib; first compound 10 µM)
1 | NCI-H1355 | 0.826 | 0.877 | 0.924 | 0.956 | 0.921 | 0.941 | 0.864 | 0.844 | 0.97 | 0.84 | 0.742 | 0.72 | 0.724 | 0.797 | 0.775 | 1.07 | 1.14 | 1.17 | 1.26 | 1.01
2 | NCI-H1437 | 0.945 | 1.26 | 0.964 | 1.07 | 0.921 | 1.13 | 1.26 | 1.15 | 1.04 | 0.91 | 0.638 | 0.681 | 0.632 | 0.643 | 0.575 | 0.873 | 1.29 | 1.11 | 0.93 | 0.875
3 | NCI-H1651 | 1.08 | 1.25 | 0.953 | 0.926 | 0.936 | 1.08 | 1.34 | 1.09 | 0.959 | 0.908 | 0.16 | 0.188 | 0.195 | 0.213 | 0.185 | 0.886 | 0.971 | 0.891 | 0.887 | 0.865
4 | NCI-H1666 | 1.09 | 1.09 | 0.966 | 0.789 | 0.582 | 0.854 | 0.916 | 0.8 | 0.714 | 0.568 | 0.691 | 0.681 | 0.773 | 0.741 | 0.743 | 0.966 | 1.01 | 0.971 | 0.945 | 0.571
5 | NCI-H1703 | 0.329 | 0.31 | 0.338 | 0.339 | 0.239 | 0.653 | 1.02 | 0.545 | 0.636 | 0.503 | 0.439 | 0.456 | 0.407 | 0.452 | 0.248 | – | 0.734 | 0.61 | 0.594 | 0.381
6 | NCI-H1734 | 0.595 | 0.698 | 0.755 | 0.672 | 0.671 | 0.905 | 0.818 | 0.918 | 0.934 | 0.791 | 0.559 | 0.661 | 0.656 | 0.589 | 0.591 | 0.724 | 0.709 | 0.745 | 0.652 | 0.547
7 | NCI-H1755 | 0.97 | 1.21 | 1.04 | 1.05 | 0.916 | 1.02 | 1.13 | 1.05 | 1.02 | 0.993 | 0.835 | 0.975 | 0.99 | 0.923 | 0.908 | 0.809 | 1.15 | 0.953 | 0.889 | 0.74
8 | NCI-H1792 | 0.574 | 1.1 | 0.736 | 0.886 | 0.735 | 0.46 | 0.601 | 0.596 | 0.585 | 0.538 | 0.301 | 0.472 | 0.474 | 0.385 | 0.281 | 1.09 | 1.53 | 1.21 | 1 | 0.921
9 | NCI-H1915 | 0.991 | 1.14 | 1.12 | 1.05 | 1.04 | 1.11 | 1.18 | 1.23 | 1.11 | 1.11 | 0.266 | 0.288 | 0.25 | 0.261 | 0.251 | 0.913 | 1.36 | 0.938 | 0.957 | 0.959
10 | NCI-H1944 | 0.888 | 0.815 | 0.843 | 0.872 | 0.786 | 1.24 | 1.2 | 1.34 | 1.24 | 1.15 | 0.391 | 0.417 | 0.413 | 0.433 | 0.386 | 1.17 | 1.19 | 1.25 | 1.25 | 0.991
11 | NCI-H1975 | 0.692 | 0.717 | 0.806 | 0.66 | 0.583 | 0.985 | 1.1 | 0.951 | 0.996 | 0.869 | 0.752 | 1 | 0.892 | 0.729 | 0.767 | 1.04 | 1.3 | 1.12 | 0.925 | 0.709
12 | NCI-H1993 | 0.655 | 0.678 | 0.702 | 0.701 | 0.66 | 0.745 | 0.732 | 0.661 | 0.721 | 0.762 | 1.12 | 1.22 | 1.16 | 0.948 | 0.942 | 0.839 | 0.882 | 0.84 | 0.945 | 0.758
13 | NCI-H2009 | 1.18 | 1.3 | 1.2 | 1.15 | 1.13 | 1.2 | 1.23 | 1.24 | 1.21 | 1.16 | 0.659 | 0.803 | 0.735 | 0.698 | 0.584 | 1.07 | 1.06 | 1.06 | 1.03 | 0.905
14 | NCI-H2023 | 0.62 | 0.722 | 0.6 | 0.605 | 0.521 | 0.597 | 0.748 | 0.661 | 0.675 | 0.697 | 0.457 | 0.478 | 0.44 | 0.416 | 0.526 | 0.623 | 0.685 | 0.602 | 0.58 | 0.428
